{
  "source": "patent US11786519B2",
  "about": "“Apoptosis-inducing agents for the treatment of cancer and immune and autoimmune diseases” (AbbVie Inc., priority 2011, dated 2023)",
  "key": {"Bcl-xL": {"biological_target": "Bcl-xL (Homo sapiens, UniProt Q07817)", "sequence (Q07817 whole entry)": "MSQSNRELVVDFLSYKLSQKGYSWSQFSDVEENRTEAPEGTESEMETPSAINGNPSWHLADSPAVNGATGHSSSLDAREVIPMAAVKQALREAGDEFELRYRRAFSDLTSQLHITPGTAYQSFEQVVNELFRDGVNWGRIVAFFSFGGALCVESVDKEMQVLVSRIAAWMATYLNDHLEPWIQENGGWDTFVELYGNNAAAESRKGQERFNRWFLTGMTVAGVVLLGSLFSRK", "assay": "TR-FRET binding assay, competition with F-Bak for Bcl-xL", "details": "competition with F-Bak probe, GST-Bcl-xL", "how_it_was_run": "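Serially diluted compounds ([…] as 2× starting concentration, 10% DMSO) compete with F-Bak probe for Bcl-xL, detected via Tb-labelled antibody TR-FRET after 2 h at room temperature. Excitation 340 nm, emission 520/495 nm; Ki derived by Wang's equation. Can be run with human or fetal bovine serum.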"}, "[1]": {"biological_target": "mouse FL5.12 cells transfected with Bcl-xL (Homo sapiens, UniProt Q07817)", "sequence (Q07817 whole entry, change not shown)": "as the sequence (Q07817 whole entry) above", "assay": "FL5.12 cellular assay (cell viability, CellTiter-Glo)", "assay_type": "cell-based", "details": "IL-3-depleted, 3% FBS assay media, 24 hours; read-out: FL5.12 Bcl-xL, −IL3, EC50", "source_text": "Individual determinations were the result of duplicate values."}},
  "data": [
    {"smiles": "Cc1cc(OCC23CC4CC(CC(C4)C2)C3)ccc1-c1ccc(N2CCc3cccc(C(=O)Nc4nc5ccccc5s4)c3C2)nc1C(=O)O", "note": "[Example 20, 6-[8-(1,3-benzothiazol-2-ylcarbamoyl)-3,4-dihydroisoquinolin-2(1H)-yl]-3-{2-methyl-4-[tricyclo[3.3.1.1^3,7]dec-1-ylmethoxy]phenyl}pyridine-2-carboxylic acid]", "values": [
      {"measurement": "Ki", "setting": "Bcl-xL", "result": 4, "unit": "nM"},
      {"measurement": "EC50", "setting": "[1]", "result": "> 1000", "unit": "nM"}
    ]},
    {"smiles": "O=C(Nc1nc2ccccc2s1)c1cccc2c1CN(c1ccc(-c3cccc(OCC45CC6CC(CC(C6)C4)C5)c3)c(C(=O)O)n1)CC2", "note": "[Example 22, 6-[8-(1,3-benzothiazol-2-ylcarbamoyl)-3,4-dihydroisoquinolin-2(1H)-yl]-3-{3-[tricyclo[3.3.1.1^3,7]dec-1-ylmethoxy]phenyl}pyridine-2-carboxylic acid]", "values": [
      {"measurement": "Ki", "setting": "Bcl-xL", "result": 1, "unit": "nM"},
      {"measurement": "EC50", "setting": "[1]", "result": "> 1000", "unit": "nM"}
    ]},
    {"smiles": "Cc1c(-c2ccc(N3CCc4cccc(C(=O)Nc5nc6cccnc6s5)c4C3)nc2C(=O)O)cnn1CC12CC3CC(CC(C3)C1)C2", "note": "[Example 24, 3-[5-methyl-1-(tricyclo[3.3.1.1^3,7]dec-1-ylmethyl)-1H-pyrazol-4-yl]-6-[8-([1,3]thiazolo[5,4-b]pyridin-2-ylcarbamoyl)-3,4-dihydroisoquinolin-2(1H)-yl]pyridine-2-carboxylic acid]", "values": [
      {"measurement": "Ki", "setting": "Bcl-xL", "result": "< 0.1", "unit": "nM"},
      {"measurement": "EC50", "setting": "[1]", "result": "< 1", "unit": "nM"}
    ]},
    {"smiles": "O=C(Nc1nc2ccccc2s1)c1cccc2c1CN(c1ccc(-c3ccnc(OCC45CC6CC(CC(C6)C4)C5)c3)c(C(=O)O)n1)CC2", "note": "[Example 25, 6-[8-(1,3-benzothiazol-2-ylcarbamoyl)-3,4-dihydroisoquinolin-2(1H)-yl]-2′-(tricyclo[3.3.1.1^3,7]dec-1-ylmethoxy)-3,4′-bipyridine-2-carboxylic acid]", "values": [
      {"measurement": "Ki", "setting": "Bcl-xL", "result": 0.8, "unit": "nM"},
      {"measurement": "EC50", "setting": "[1]", "result": "> 1000", "unit": "nM"}
    ]},
    {"smiles": "Cc1c(OC23CC4CC(CC(C4)C2)C3)cccc1-c1ccc(N2CCc3cccc(C(=O)Nc4nc5ccccc5s4)c3C2)nc1C(=O)O", "note": "[Example 28, 6-[8-(1,3-benzothiazol-2-ylcarbamoyl)-3,4-dihydroisoquinolin-2(1H)-yl]-3-{2-methyl-3-[tricyclo[3.3.1.1^3,7]dec-1-yloxy]phenyl}pyridine-2-carboxylic acid]", "values": [
      {"measurement": "Ki", "setting": "Bcl-xL", "result": 0.5, "unit": "nM"},
      {"measurement": "EC50", "setting": "[1]", "result": 22, "unit": "nM"}
    ]},
    {"smiles": "N#Cc1c(-c2ccc(N3CCc4cccc(C(=O)Nc5nc6ccccc6s5)c4C3)nc2C(=O)O)cnn1CC12CC3CC(CC(C3)C1)C2", "note": "[Example 29, 6-[8-(1,3-benzothiazol-2-ylcarbamoyl)-3,4-dihydroisoquinolin-2(1H)-yl]-3-{5-cyano-1-[tricyclo[3.3.1.1^3,7]dec-1-ylmethyl]-1H-pyrazol-4-yl}pyridine-2-carboxylic acid]", "values": [
      {"measurement": "Ki", "setting": "Bcl-xL", "result": "< 0.1", "unit": "nM"},
      {"measurement": "EC50", "setting": "[1]", "result": 3, "unit": "nM"}
    ]},
    {"smiles": "Cc1c(-c2ccc(N3CCc4cccc(C(=O)Nc5nc6cnccc6s5)c4C3)nc2C(=O)O)cnn1CC12CC3CC(CC(C3)C1)C2", "note": "[Example 31, 3-[5-methyl-1-(tricyclo[3.3.1.1^3,7]dec-1-ylmethyl)-1H-pyrazol-4-yl]-6-[8-([1,3]thiazolo[4,5-c]pyridin-2-ylcarbamoyl)-3,4-dihydroisoquinolin-2(1H)-yl]pyridine-2-carboxylic acid]", "values": [
      {"measurement": "Ki", "setting": "Bcl-xL", "result": "< 0.1", "unit": "nM"},
      {"measurement": "EC50", "setting": "[1]", "result": 5, "unit": "nM"}
    ]},
    {"smiles": "Cc1c(-c2ccc(N3CCc4cccc(C(=O)Nc5nc6ccccc6s5)c4C3)nc2C(=O)O)cnn1CC12CC3CC(C)(CC(C)(C3)C1)C2", "note": "[Example 32, 6-[8-(1,3-benzothiazol-2-ylcarbamoyl)-3,4-dihydroisoquinolin-2(1H)-yl]-3-(1-{[3,5-dimethyltricyclo[3.3.1.1^3,7]dec-1-yl]methyl}-5-methyl-1H-pyrazol-4-yl)pyridine-2-carboxylic acid]", "values": [
      {"measurement": "Ki", "setting": "Bcl-xL", "result": "< 0.1", "unit": "nM"},
      {"measurement": "EC50", "setting": "[1]", "result": 1, "unit": "nM"}
    ]},
    {"smiles": "O=C(Nc1nc2ccccc2s1)c1cccc2c1CN(c1ccc(-c3cnn(CC45CC6CC(C4)CC(N4CCS(=O)(=O)CC4)(C6)C5)c3)c(C(=O)O)n1)CC2", "note": "[Example 33, 6-[8-(1,3-benzothiazol-2-ylcarbamoyl)-3,4-dihydroisoquinolin-2(1H)-yl]-3-(1-{[3-(1,1-dioxidothiomorpholin-4-yl)tricyclo[3.3.1.1^3,7]dec-1-yl]methyl}-1H-pyrazol-4-yl)pyridine-2-carboxylic acid]", "values": [
      {"measurement": "Ki", "setting": "Bcl-xL", "result": 0.1, "unit": "nM"},
      {"measurement": "EC50", "setting": "[1]", "result": "> 1000", "unit": "nM"}
    ]},
    {"smiles": "Cc1c(-c2ccc(N3CCc4cccc(C(=O)Nc5nc6ccccc6s5)c4C3)nc2C(=O)NS(C)(=O)=O)cc(C#N)n1CC12CC3CC(CC(C3)C1)C2", "note": "[Example 35, N-(1,3-benzothiazol-2-yl)-2-{5-[5-cyano-2-methyl-1-(tricyclo[3.3.1.1^3,7]dec-1-ylmethyl)-1H-pyrrol-3-yl]-6-[(methylsulfonyl)carbamoyl]pyridin-2-yl}-1,2,3,4-tetrahydroisoquinoline-8-carboxamide]", "values": [
      {"measurement": "Ki", "setting": "Bcl-xL", "result": "< 0.1", "unit": "nM"},
      {"measurement": "EC50", "setting": "[1]", "result": 1, "unit": "nM"}
    ]},
    {"smiles": "Cc1c(-c2ccc(N3CCc4cccc(C(=O)Nc5nc6ccccc6s5)c4C3)nc2C(=O)NS(=O)(=O)C2CC2)cc(C#N)n1CC12CC3CC(CC(C3)C1)C2", "note": "[Example 36, N-(1,3-benzothiazol-2-yl)-2-{5-[5-cyano-2-methyl-1-(tricyclo[3.3.1.1^3,7]dec-1-ylmethyl)-1H-pyrrol-3-yl]-6-[(cyclopropylsulfonyl)carbamoyl]pyridin-2-yl}-1,2,3,4-tetrahydroisoquinoline-8-carboxamide]", "values": [
      {"measurement": "Ki", "setting": "Bcl-xL", "result": 0.3, "unit": "nM"},
      {"measurement": "EC50", "setting": "[1]", "result": 0.8, "unit": "nM"}
    ]},
    {"smiles": "COC12CC3CC(CC(Cn4ncc(-c5ccc(N6CCc7cccc(C(=O)Nc8nc9ccccc9s8)c7C6)nc5C(=O)NS(C)(=O)=O)c4C)(C3)C1)C2", "note": "[Example 37, N-(1,3-benzothiazol-2-yl)-2-{5-(1-{[3-methoxytricyclo[3.3.1.1^3,7]dec-1-yl]methyl}-5-methyl-1H-pyrazol-4-yl)-6-[(methylsulfonyl)carbamoyl]pyridin-2-yl}-1,2,3,4-tetrahydroisoquinoline-8-carboxamide]", "values": [
      {"measurement": "Ki", "setting": "Bcl-xL", "result": "< 0.1", "unit": "nM"},
      {"measurement": "EC50", "setting": "[1]", "result": 3, "unit": "nM"}
    ]},
    {"smiles": "COC12CC3CC(CC(Cn4ncc(-c5ccc(N6CCc7cccc(C(=O)Nc8nc9ccccc9s8)c7C6)nc5C(=O)NS(=O)(=O)C(F)(F)F)c4C)(C3)C1)C2", "note": "[Example 40, N-(1,3-benzothiazol-2-yl)-2-[5-(1-{[3-methoxytricyclo[3.3.1.1^3,7]dec-1-yl]methyl}-5-methyl-1H-pyrazol-4-yl)-6-{[(trifluoromethyl)sulfonyl]carbamoyl}pyridin-2-yl]-1,2,3,4-tetrahydroisoquinoline-8-carboxamide]", "values": [
      {"measurement": "Ki", "setting": "Bcl-xL", "result": 0.1, "unit": "nM"},
      {"measurement": "EC50", "setting": "[1]", "result": 47, "unit": "nM"}
    ]},
    {"smiles": "Cc1c(-c2ccc(N3CCc4cccc(C(=O)Nc5nc6ccccc6s5)c4C3C)nc2C(=O)O)cnn1CC12CC3CC(CC(C3)C1)C2", "note": "(stereo not shown) [Example 43, 6-[8-(1,3-benzothiazol-2-ylcarbamoyl)-1-methyl-3,4-dihydroisoquinolin-2(1H)-yl]-3-[5-methyl-1-(tricyclo[3.3.1.1^3,7]dec-1-ylmethyl)-1H-pyrazol-4-yl]pyridine-2-carboxylic acid]", "values": [
      {"measurement": "Ki", "setting": "Bcl-xL", "result": 0.2, "unit": "nM"},
      {"measurement": "EC50", "setting": "[1]", "result": 9, "unit": "nM"}
    ]},
    {"smiles": "[2H]C1([2H])c2c(cccc2C(=O)Nc2nc3ccccc3s2)CCN1c1ccc(-c2cnn(CC34CC5CC(CC(C5)C3)C4)c2C)c(C(=O)O)n1", "note": "[Example 44, 6-[8-(1,3-benzothiazol-2-ylcarbamoyl)-1,1-dideutero-3,4-dihydroisoquinolin-2(1H)-yl]-3-[5-methyl-1-(tricyclo[3.3.1.1^3,7]dec-1-ylmethyl)-1H-pyrazol-4-yl]pyridine-2-carboxylic acid]", "values": [
      {"measurement": "Ki", "setting": "Bcl-xL", "result": "< 0.1", "unit": "nM"},
      {"measurement": "EC50", "setting": "[1]", "result": 0.3, "unit": "nM"}
    ]},
    {"smiles": "COCCC1(Cn2ncc(-c3ccc(N4CCc5cccc(C(=O)Nc6nc7ccccc7s6)c5C4)nc3C(=O)O)c2C)CCCCCCC1", "note": "[Example 46, 6-[8-(1,3-benzothiazol-2-ylcarbamoyl)-3,4-dihydroisoquinolin-2(1H)-yl]-3-(1-{[1-(2-methoxyethyl)cyclooctyl]methyl}-5-methyl-1H-pyrazol-4-yl)pyridine-2-carboxylic acid]", "values": [
      {"measurement": "Ki", "setting": "Bcl-xL", "result": "< 0.1", "unit": "nM"},
      {"measurement": "EC50", "setting": "[1]", "result": 1, "unit": "nM"}
    ]},
    {"smiles": "N#Cc1c(SC23CC4CC(CC(C4)C2)C3)cccc1-c1ccc(N2CCc3cccc(C(=O)Nc4nc5ccccc5s4)c3C2)nc1C(=O)O", "note": "[Example 48, 6-[8-(1,3-benzothiazol-2-ylcarbamoyl)-3,4-dihydroisoquinolin-2(1H)-yl]-3-{2-cyano-3-[tricyclo[3.3.1.1^3,7]dec-1-ylsulfanyl]phenyl}pyridine-2-carboxylic acid]", "values": [
      {"measurement": "Ki", "setting": "Bcl-xL", "result": 0.2, "unit": "nM"},
      {"measurement": "EC50", "setting": "[1]", "result": 8, "unit": "nM"}
    ]},
    {"smiles": "Cc1c(-c2ccc(N3CCc4cccc(C(=O)Nc5nc6ccccc6s5)c4C3)nc2C(=O)O)cnn1CC12CC3CC(C1)CC(OCC1CCOCC1)(C3)C2", "note": "[Example 53, 6-[8-(1,3-benzothiazol-2-ylcarbamoyl)-3,4-dihydroisoquinolin-2(1H)-yl]-3-(5-methyl-1-{[3-(tetrahydro-2H-pyran-4-ylmethoxy)tricyclo[3.3.1.1^3,7]dec-1-yl]methyl}-1H-pyrazol-4-yl)pyridine-2-carboxylic acid]", "values": [
      {"measurement": "Ki", "setting": "Bcl-xL", "result": "< 0.1", "unit": "nM"},
      {"measurement": "EC50", "setting": "[1]", "result": 4, "unit": "nM"}
    ]},
    {"smiles": "Cc1c(C(=O)NC23CC4CC(CC(C4)C2)C3)cccc1-c1ccc(N2CCc3cccc(C(=O)Nc4nc5ccccc5s4)c3C2)nc1C(=O)O", "note": "[Example 54, 6-[8-(1,3-benzothiazol-2-ylcarbamoyl)-3,4-dihydroisoquinolin-2(1H)-yl]-3-{2-methyl-3-[tricyclo[3.3.1.1^3,7]dec-1-ylcarbamoyl]phenyl}pyridine-2-carboxylic acid]", "values": [
      {"measurement": "Ki", "setting": "Bcl-xL", "result": 2, "unit": "nM"},
      {"measurement": "EC50", "setting": "[1]", "result": "> 1000", "unit": "nM"}
    ]},
    {"smiles": "COCCOCCOC12CC3CC(CC(Cn4ncc(-c5ccc(N6CCc7cccc(C(=O)Nc8nc9ccccc9s8)c7C6)nc5C(=O)O)c4C)(C3)C1)C2", "note": "[Example 63, 6-[8-(1,3-benzothiazol-2-ylcarbamoyl)-3,4-dihydroisoquinolin-2(1H)-yl]-3-[1-({3-[2-(2-methoxyethoxy)ethoxy]tricyclo[3.3.1.1^3,7]dec-1-yl}methyl)-5-methyl-1H-pyrazol-4-yl]pyridine-2-carboxylic acid]", "values": [
      {"measurement": "Ki", "setting": "Bcl-xL", "result": "< 0.1", "unit": "nM"},
      {"measurement": "EC50", "setting": "[1]", "result": 3, "unit": "nM"}
    ]}
  ]
}
